Columns and labels:
[1] = tested on: patients suffering from moderate to severe AD; assay: MZ-9605 (Therapy Example 1): 28-week double-blind placebo-controlled trial of memantine 20 mg/day; format: in vivo, human
Method: Patients suffering from moderate to severe AD were randomized to placebo or 20 mg memantine daily for 28 weeks. Primary efficacy variables were the Clinician's Interview-Based Impression of Change plus caregiver input (CIBIC-Plus) and the Alzheimer's Disease Cooperative Study Activities of Daily Living Inventory modified for severe dementia (ADCS-ADL). Secondary efficacy variables included the Severe Impairment Battery (SIB) and Neuropsychiatric Inventory (NPI). Treatment differences between baseline and endpoint were assessed. Incomplete observations were imputed using the most recent previous observation (last observation carried forward—LOCF). Results were also analyzed using only the observed values, where missing values were not replaced (Observed Cases (OC) analysis). AD patients (N=252), (67 percent female, mean age=76 years), were randomized from 32 U.S. centers. Of these, 181 completed the study (72 percent) and were evaluated at week 28. Seventy-one patients discontinued treatment prematurely (42 placebo, 29 memantine). Change on the CIBIC-Plus favored memantine over placebo (P=0.06 LOCF, P=0.03 OC) Memantine-treated patients deteriorated less than placebo treated patients on the ADCS-ADL (P=0.02 LOCF, P=0.003 OC) and the SBI (P=<0.001 LOCF, P=0.002 OC). NPI change scores at week 28 were statistically significant. Depending on the type of analysis, this benefit was found in two domains: agitation (p=0.008 LOCF) and delusion (p=0.04 LOCF) or for agitation, only (p=0.023 OC). The finding for agitation also occurred in the dichotomised analyses for memantine-treated patients with and without behavioural symptoms at baseline. […] This study supports the antiglutamatergic treatment approach in moderate to severe AD, a phase associated with patient distress and caregiver burden, for which other treatments are not available and the treatment of behavioral disorders associated therewith.
Community residing patients at least 50 years old with probable AD according to Diagnostic and Statistical Manual of Mental Disorders (DSM-IV) (American Psychiatric Association. Diagnostic and statistical manual of mental disorders. 4th ed. Washington: American Psychiatric Association; 1994.) and National Institute of Neurologic and Communicative Disorders and Stroke and AD and Related Disorders Association (NINCDS-ADRDA) criteria (McKhann G, Drachman D, Folstein M, Katzman R, Price D, Stadlan E M, Clinical diagnosis of Alzheimer's disease: report of the NINCDS-ADRDA Work Group under the auspices of Department of Health and Human Services Task Force on Alzheimer's Disease. Neurology 1984;34:939-44) were recruited. Eligibility criteria included: baseline Mini-Mental State Examination (MMSE) scores of 3-14 (Folstein M F, Folstein, S E, McHugh, P R, Mini-mental state. A practical method for grading the cognitive state of patients for the clinician. J Psychiat Res 1975;12:189-98.), stage 5 or 6 on the Global Deterioration Scale (GDS) (Reisberg B, Ferris S H, de Leon M J, Crook T, The Global Deterioration Scale for assessment of primary degenerative dementia. Am J Psychiatry 1982;139:1136-9.), and a stage of 6a or greater on the Functional Assessment Staging (FAST) (Sclan S G, Reisberg B, Functional assessment staging (FAST) in Alzheimer's disease: reliability, validity, and ordinality. Int Psychogeriatr 1992;4 Suppl 1:55-69.) instrument, signifying the presence of dementia-related deficits in the ability to perform one or more basic activities of daily living. Patients had reliable caregivers and recent (within 12 months) computed tomography (CT) or magnetic resonance imaging (MRI). […]

[2] = humans; cited from earlier work
[3] = MZ-9605, week 28, ITT LOCF, NPI total score <75%
[4] = MZ-9605, week 28, ITT LOCF, NPI total score ≧=75% (top quartile)
[5] = MZ-9605, week 28, ITT LOCF, antipsychotics usage “YES” (N = n)
[6] = MZ-9605, week 28, ITT LOCF, antipsychotics usage “YES” (N = y)
[7] = MZ-9605, week 28, ITT LOCF, baseline NPI agitation score <4
[8] = MZ-9605, week 28, ITT LOCF, baseline NPI agitation score ≧=4
[9] = MZ-9605, week 28, ITT LOCF, overall

CC12CC3CC(C)(C1)CC(N)(C3)C2 [memantine, 1-amino-3,5-dimethyl adamantane]
adverse events ([1]; 20 mg/day, 28 weeks): not associated with significant adverse events
patients who experienced an adverse event of agitation ([1]; 20 mg/day, 28 weeks): 18%
premature discontinuations due to adverse events ([1]; 20 mg/day, prior to week 28): 10%
Change (baseline to week 28) in NPI domain Aberr. Mot. Behavior ([1]; ITT, OC): 0.01
Change (baseline to week 28) in NPI domain Agitation/Aggression ([1]; ITT, OC): −0.01
Change (baseline to week 28) in NPI domain Anxiety ([1]; ITT, OC): 0.51
Change (baseline to week 28) in NPI domain Apathy/Indifference ([1]; ITT, OC): −0.25
Change (baseline to week 28) in NPI domain App./Eating Change ([1]; ITT, OC): 0.00
Change (baseline to week 28) in NPI domain Delusions ([1]; ITT, OC): −0.38
Change (baseline to week 28) in NPI domain Depression/Dysphoria ([1]; ITT, OC): 0.00
Change (baseline to week 28) in NPI domain Disinhibition ([1]; ITT, OC): −0.53
Change (baseline to week 28) in NPI domain Elation/Euphoria ([1]; ITT, OC): 0.18
Change (baseline to week 28) in NPI domain Hallucinations ([1]; ITT, OC): 0.47
Change (baseline to week 28) in NPI domain Irritabililty/Lability ([1]; ITT, OC): 0.04
Change (baseline to week 28) in NPI domain Night-time Behavior ([1]; ITT, OC): 0.05
ADCS-ADL (change) LS Mean Diff., MEM v. PLA [1, 3]: 1.48
ADCS-ADL (change) mean [1, 3]: −3.4
CIBIC-PLUS Raw Mean Diff., MEM v. PLA [1, 3]: −0.2
CIBIC-PLUS mean [1, 3]: 4.4
SIB (change) LS Mean Diff., MEM v. PLA [1, 3]: 3.36
SIB (change) mean [1, 3]: −5.6
ADCS-ADL (change) LS Mean Diff., MEM v. PLA [1, 4]: −3.47
ADCS-ADL (change) mean [1, 4]: −2.1
CIBIC-PLUS Raw Mean Diff., MEM v. PLA [1, 4]: −0.4
CIBIC-PLUS mean [1, 4]: 4.6
SIB (change) LS Mean Diff., MEM v. PLA [1, 4]: 13.3
SIB (change) mean [1, 4]: 0.03
ADCS-ADL (change) LS Mean Diff., MEM v. PLA [1, 5]: 1.9
ADCS-ADL (change) mean [1, 5]: −2.7
CIBIC-PLUS Raw Mean Diff., MEM v. PLA [1, 5]: −0.22
CIBIC-PLUS mean [1, 5]: 4.47
SIB (change) LS Mean Diff., MEM v. PLA [1, 5]: 5.1
SIB (change) mean [1, 5]: −4.1
ADCS-ADL (change) LS Mean Diff., MEM v. PLA [1, 6]: 0.9
ADCS-ADL (change) mean [1, 6]: −5.5
CIBIC-PLUS Raw Mean Diff., MEM v. PLA [1, 6]: −0.29
CIBIC-PLUS mean [1, 6]: 4.62
SIB (change) LS Mean Diff., MEM v. PLA [1, 6]: 10.6
SIB (change) mean [1, 6]: −2.5
ADCS-ADL (change) LS Mean Diff., MEM v. PLA [1, 7]: 1.18
ADCS-ADL (change) mean [1, 7]: −3.5
CIBIC-PLUS Raw Mean Diff., MEM v. PLA [1, 7]: −0.2
CIBIC-PLUS mean [1, 7]: 4.5
SIB (change) LS Mean Diff., MEM v. PLA [1, 7]: 3.75
SIB (change) mean [1, 7]: −4.8
ADCS-ADL (change) LS Mean Diff., MEM v. PLA [1, 8]: 4.97
ADCS-ADL (change) mean [1, 8]: −1.2
CIBIC-PLUS Raw Mean Diff., MEM v. PLA [1, 8]: −0.5
CIBIC-PLUS mean [1, 8]: 4.4
SIB (change) LS Mean Diff., MEM v. PLA [1, 8]: 14.05
SIB (change) mean [1, 8]: −0.5
ADCS-ADL (change) LS Mean Diff., MEM v. PLA ([1]; MZ-9605, week 28, ITT LOCF, baseline NPI agitation score ≧=4, listed as MEM): −4.97
ADCS-ADL (change) LS Mean Diff., MEM v. PLA [1, 9]: 2.06
ADCS-ADL (change) LS mean [1, 9]: −3.02
CIBIC-PLUS LS mean [1, 9]: 4.48
CIBIC-PLUS Raw Mean Diff., MEM v. PLA [1, 9]: −0.25
SIB (change) LS Mean Diff., MEM v. PLA [1, 9]: 5.91
SIB (change) LS mean [1, 9]: −3.93
CIBIC-Plus ratings, mean difference memantine v. placebo ([1]; at endpoint (LOCF)): 0.3
ADCS-ADL total score, mean difference memantine v. placebo ([1]; endpoint, LOCF): −2.1
SIB total score, mean difference memantine v. placebo ([1]; endpoint, LOCF): −2.1
ADCS-ADL total score, mean difference memantine v. placebo ([1]; week 28, OC): −3.4
CIBIC-Plus ratings, mean difference memantine v. placebo ([1]; week 28, OC): 0.4
SIB total score, mean difference memantine v. placebo ([1]; week 28, OC): −3.4
therapeutically effective circulating concentration [2]: 1 µM
